According to publication PMC6835510, “Magnificamide, a β-Defensin-Like Peptide from the Mucus of the Sea Anemone Heteractis magnifica, Is a Strong Inhibitor of Mammalian α-Amylases” (Marine Drugs, 2019):
Bridge positions count the residues as written; N and C are the ends. Ends that are not written are not given here.

What was measured:
[1] = target: human salivary α-amylase (HSA) (Homo sapiens, UniProt P0DUB6); assay: Determination of Ki against human saliva α-amylase (Morrison); assay type: biochemical; settings: 37 °C, 50 mM sodium phosphate, 100 mM NaCl, pH 7.0; CNPG3 3.3 mM (KM 3.4 mM), nominal [E] 100 nM; 10 min pre-incubation; 405 nm; Morrison fit, competitive mode assumed; mean ± SE (n = 3); read-out: Ki against HSA
Sequence of human salivary α-amylase (HSA) (P0DUB6 16-511): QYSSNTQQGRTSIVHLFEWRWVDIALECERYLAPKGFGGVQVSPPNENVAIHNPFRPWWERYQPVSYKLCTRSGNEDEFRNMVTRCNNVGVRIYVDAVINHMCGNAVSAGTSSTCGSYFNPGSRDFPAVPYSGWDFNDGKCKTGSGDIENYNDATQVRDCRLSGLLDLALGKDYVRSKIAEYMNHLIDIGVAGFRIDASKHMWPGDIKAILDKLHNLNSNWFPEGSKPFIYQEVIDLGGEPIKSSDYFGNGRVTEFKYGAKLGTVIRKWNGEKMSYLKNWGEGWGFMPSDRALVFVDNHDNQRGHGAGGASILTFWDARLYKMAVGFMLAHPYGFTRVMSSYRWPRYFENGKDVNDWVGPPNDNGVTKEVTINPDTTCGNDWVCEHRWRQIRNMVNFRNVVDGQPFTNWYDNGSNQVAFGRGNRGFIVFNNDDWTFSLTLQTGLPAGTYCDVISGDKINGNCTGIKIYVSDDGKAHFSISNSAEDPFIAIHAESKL
Description: (§1) For a quantitative assessment of tight-binding inhibitor potency, Morrison’s method was applied. This method uses the Morrison quadratic equation (Equation (1)) for fitting inhibitor-response data and determining Ki app as a nonlinear regression parameter. (1) υ/υo=1−([E]+[I]+Kiapp)−([E]+[I]+Kiapp)^2−4[E][I]/2[E]o
(§2) Kinetic assays were carried out at 37 °C in 50 mM sodium phosphate and 100 mM sodium chloride (pH 7.0). 2-Chloro-4-nitrophenyl-α-maltotrioside (CNPG3) (Sigma Aldrich, St. Louis, MO, USA) was used as the substrate and the optical absorption of the 2-chloro-4-nitrophenol was measured at 405 nm. Reactions were run with final [CNPG3] = 1 mM ([S]/KM = 1.41, KM = 0.71 mM), nominal [E] = 20 nM for PPA, [CNPG3] = 3.3 mM ([S]/KM = 0.97, KM = 3.4 mM), and nominal [E] = 100 nM for HSA to provide sufficient analytical signal. Inhibitor dilution schemes were optimized considering recommendations in [34].
(§3) The enzyme was pre-incubated with the inhibitor for 10 minutes before the addition of substrate which launched the reaction. Reactions were monitored on an xMark microplate spectrophotometer (BioRad, USA) in the kinetic mode for 30 min. The initial linear steady state region provided initial rate values for each inhibitor concentration (υ), along with uninhibited rate values (υo). Measurements were run in triplicate. […]

[2] = target: T1, porcine pancreatic α-amylase (PPA) (Sus scrofa, UniProt P00690); assay: Determination of Ki against porcine pancreatic α-amylase (Morrison); assay type: biochemical; settings: 37 °C, 50 mM sodium phosphate, 100 mM NaCl, pH 7.0; CNPG3 1 mM (KM 0.71 mM), nominal [E] 20 nM; 10 min pre-incubation; 405 nm; Morrison fit, competitive mode assumed; mean ± SE (n = 3)
T1 construct: purchased Sigma Aldrich A4268
T1 sequence (P00690 16-511): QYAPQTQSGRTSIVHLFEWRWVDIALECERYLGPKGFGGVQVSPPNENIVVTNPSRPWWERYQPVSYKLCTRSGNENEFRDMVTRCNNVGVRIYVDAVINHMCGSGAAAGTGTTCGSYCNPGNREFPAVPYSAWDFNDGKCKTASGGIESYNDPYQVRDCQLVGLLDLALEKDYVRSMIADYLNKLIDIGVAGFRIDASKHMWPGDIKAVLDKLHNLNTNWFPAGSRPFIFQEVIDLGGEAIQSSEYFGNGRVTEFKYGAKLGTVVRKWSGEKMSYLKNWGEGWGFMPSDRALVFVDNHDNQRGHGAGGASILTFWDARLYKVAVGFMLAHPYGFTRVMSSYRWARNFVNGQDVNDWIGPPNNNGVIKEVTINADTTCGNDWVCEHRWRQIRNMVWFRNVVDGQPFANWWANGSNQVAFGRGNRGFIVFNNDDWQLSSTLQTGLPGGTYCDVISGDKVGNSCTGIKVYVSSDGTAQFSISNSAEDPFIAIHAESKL
Description: as §1, §2, §3

[3] = system: fungi, Gram-positive or Gram-negative bacteria; assay: Antimicrobial screening, overall; assay type: cell-based; settings: 1, 5, 10, 20 µM
Description: The antimicrobial activity of r-magnificamide was tested against Gram-positive (Staphylococcus aureus ATCC 21027 and Bacillus subtilis ATCC6633), Gram-negative bacteria (Escherichia coli VKPM B-7935 and Pseudomonas aeruginosa ATCC 27853), and the fungus Candida albicans KMM 455 by the agar dilution method. Microbial strains were taken from the American Type Culture Collection (ATCC), Russian National Collection of Industrial Microorganisms (VKPM), and Collection of Marine Microorganisms (KMM) (Pacific Institute of Bioorganic Chemistry FEB RAS). To obtain a microbial lawn, 0.1 mL of a cell suspension (0.5 × 10^8 cells/mL) was uniformly distributed on agar surface in Petri dishes (15 g/L tryptic soy broth, 2 g/L bacto yeast extract, 1 g/L glucose, and 20 g/L agar for bacteria; for fungi 10 g/L of glucose was added). Wells with a diameter of 6 mm were punched into the agar and filled with 100 µL of the peptide solution at concentrations 1, 5, 10, and 20 µM. The plates were then incubated for 18 h at 37 °C for bacteria, and at 30 °C for the fungus. Minimum inhibitory concentration was determined by measuring the clear zone of inhibition around each well. All assays were performed independently three times.

Which results are given for “SEGTSCYIYHGVYGICKAKCAEDMKAMAGMGVCEGDLCCYKTPW (disulfide 6-38, 16-33, 20-39) [r-magnificamide]”?
Ki [1]: 7.7 ± 1.5 nM; Ki [2]: 0.17 ± 0.06 nM; Antimicrobial activity, overall [3]: did not reveal activity against fungi, Gram-positive or Gram-negative bacteria; Antimicrobial activity, overall ([3]; listed as recombinant analog of magnificamide): does not show antimicrobial or channel modulating activities
